Assays:
Assay in all cases: increase in dead-cell fraction, 72 h; higher = more death;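 note: breast cancer cell lines in 384-well plates, stained with Hoechst plus LIVE/DEAD far red dye and imaged, cells above an LDR intensity threshold counted dead, Hoechst-negative corpses included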
BSJ-01-175 = compound: CN(C)C/C=C/C(=O)Nc1ccc(O[C@@H]2CCC[C@@H](Nc3ncc(Cl)c(-c4c[nH]c5ccccc45)n3)C2)cc1 [BSJ-01-175]
Buparlisib/NVP-BKM120 = compound: Nc1cc(C(F)(F)F)c(-c2cc(N3CCOCC3)nc(N3CCOCC3)n2)cn1 [Buparlisib/NVP-BKM120]
Cabozantinib = compound: COc1cc2nccc(Oc3ccc(NC(=O)C4(C(=O)Nc5ccc(F)cc5)CC4)cc3)c2cc1OC [Cabozantinib]
[1] = compound: CCC1=CN=CN=C1N2CCN(CC2)CC3=NC4=C(N3)C=C(C=C4)C(F)(F)F
senexin b = compound: CN1CCN(C(=O)c2ccc3cc(CCNc4ncnc5ccc(C#N)cc45)ccc3c2)CC1 [senexin b]
BVD523 = compound: CC(C)Nc1cc(-c2c[nH]c(C(=O)N[C@H](CO)c3cccc(Cl)c3)c2)c(Cl)cn1 [BVD523]
AZD6738 = compound: C[C@@H]1COCCN1c1cc(C2([S@](C)(=N)=O)CC2)nc(-c2cc[nH]c3nccc2-3)n1 [AZD6738]
SHP099 = compound: CC1(CCN(CC1)C2=CN=C(C(=N2)N)C3=C(C(=CC=C3)Cl)Cl)N [SHP099]
[2] = compound: CCCCOc1c(C(=O)c2c(F)cc(C)cc2F)c[nH]c2nncc1-2
R0-3306 = compound: C1=CC2=C(C=CC(=C2)C=C3C(=O)NC(=NCC4=CC=CS4)S3)N=C1 [R0-3306]
[3] = compound: CC(=O)Nc1cccc(-n2c(=O)n(C3CC3)c(=O)c3c(Nc4ccc(I)cc4F)n(C)c(=O)c(C)c32)c1
Taselisib/GDC0032 = compound: Cc1nc(-c2cn3c(n2)-c2ccc(-c4cnn(C(C)(C)C(N)=O)c4)cc2OCC3)n(C(C)C)n1 [Taselisib/GDC0032]
[4] = compound: COc1cccc(OCCCN)c1-c1cc(Nc2cnc(C#N)cn2)n[nH]1

In the case of AU565, the “increase in dead-cell fraction” value (BSJ-01-175; 0.001 µM) is reported as -0.006, the “increase in dead-cell fraction” value (BSJ-01-175; 0.003162 µM) is reported as 0.0214 and the “increase in dead-cell fraction” value (BSJ-01-175; 0.01 µM) is reported as 0.121. For the same cell line, the “increase in dead-cell fraction” value (BSJ-01-175; 0.03162 µM) was 0.26, the “increase in dead-cell fraction” value (BSJ-01-175; 0.1 µM) was 0.296 and the “increase in dead-cell fraction” value (BSJ-01-175; 0.3162 µM) was 0.35. The “increase in dead-cell fraction” value (BSJ-01-175; 1 µM) was 0.443, the “increase in dead-cell fraction” value (BSJ-01-175; 3.162 µM) was 0.432 and the “increase in dead-cell fraction” value (BSJ-01-175; 10 µM) was 0.68. The “increase in dead-cell fraction” value (Buparlisib/NVP-BKM120; 0.001 µM) was -0.0006, the “increase in dead-cell fraction” value (Buparlisib/NVP-BKM120; 0.003162 µM) was 0.0058 and the “increase in dead-cell fraction” value (Buparlisib/NVP-BKM120; 0.01 µM) was 0.0024. The “increase in dead-cell fraction” value (Buparlisib/NVP-BKM120; 0.03162 µM) was 0.0055, the “increase in dead-cell fraction” value (Buparlisib/NVP-BKM120; 0.1 µM) was 0.0187 and the “increase in dead-cell fraction” value (Buparlisib/NVP-BKM120; 0.3162 µM) was 0.043. The “increase in dead-cell fraction” value (Buparlisib/NVP-BKM120; 1 µM) was 0.189, the “increase in dead-cell fraction” value (Buparlisib/NVP-BKM120; 3.162 µM) was 0.273 and the “increase in dead-cell fraction” value (Buparlisib/NVP-BKM120; 10 µM) was 0.227. For the same cell line, the “increase in dead-cell fraction” value (Cabozantinib; 0.001 µM) was 0.0017, the “increase in dead-cell fraction” value (Cabozantinib; 0.003162 µM) was 0.0057 and the “increase in dead-cell fraction” value (Cabozantinib; 0.01 µM) was 0.0018. The “increase in dead-cell fraction” value (Cabozantinib; 0.03162 µM) was -0.0008, the “increase in dead-cell fraction” value (Cabozantinib; 0.1 µM) was -0.003 and the “increase in dead-cell fraction” value (Cabozantinib; 0.3162 µM) was 0.0025. The “increase in dead-cell fraction” value (Cabozantinib; 1 µM) was 0.0028, the “increase in dead-cell fraction” value (Cabozantinib; 3.162 µM) was -0.0021 and the “increase in dead-cell fraction” value (Cabozantinib; 10 µM) was 0.0274. For the same cell line, the “increase in dead-cell fraction” value ([1]; 0.001 µM) was 0.0018, the “increase in dead-cell fraction” value ([1]; 0.003162 µM) was -0.0015 and the “increase in dead-cell fraction” value ([1]; 0.01 µM) was -0.0042. The “increase in dead-cell fraction” value ([1]; 0.03162 µM) was -0.0013, the “increase in dead-cell fraction” value ([1]; 0.1 µM) was 0.0031 and the “increase in dead-cell fraction” value ([1]; 0.3162 µM) was -0.0005. The “increase in dead-cell fraction” value ([1]; 1 µM) was 0.001, the “increase in dead-cell fraction” value ([1]; 3.162 µM) was 0.0056 and the “increase in dead-cell fraction” value ([1]; 10 µM) was 0.0157. The “increase in dead-cell fraction” value (senexin b; 0.001 µM) was -0.0057, the “increase in dead-cell fraction” value (senexin b; 0.003162 µM) was -0.0066 and the “increase in dead-cell fraction” value (senexin b; 0.01 µM) was -0.0019. The “increase in dead-cell fraction” value (senexin b; 0.03162 µM) was -0.0056, the “increase in dead-cell fraction” value (senexin b; 0.1 µM) was -0.0146 and the “increase in dead-cell fraction” value (senexin b; 0.3162 µM) was 0.0036. For the same cell line, the “increase in dead-cell fraction” value (senexin b; 1 µM) was 0.0078, the “increase in dead-cell fraction” value (senexin b; 3.162 µM) was 0.0105 and the “increase in dead-cell fraction” value (senexin b; 10 µM) was -0.0068. The “increase in dead-cell fraction” value (BVD523; 0.001 µM) was -0.0105, the “increase in dead-cell fraction” value (BVD523; 0.003162 µM) was -0.0083 and the “increase in dead-cell fraction” value (BVD523; 0.01 µM) was -0.0074. The “increase in dead-cell fraction” value (BVD523; 0.03162 µM) was -0.0063, the “increase in dead-cell fraction” value (BVD523; 0.1 µM) was -0.0004 and the “increase in dead-cell fraction” value (BVD523; 0.3162 µM) was -0.0069. For the same cell line, the “increase in dead-cell fraction” value (BVD523; 1 µM) was 0.0092, the “increase in dead-cell fraction” value (BVD523; 3.162 µM) was 0.0104 and the “increase in dead-cell fraction” value (BVD523; 10 µM) was 0.0436. For the same cell line, the “increase in dead-cell fraction” value (AZD6738; 0.001 µM) was 0.0013, the “increase in dead-cell fraction” value (AZD6738; 0.003162 µM) was 0.0103 and the “increase in dead-cell fraction” value (AZD6738; 0.01 µM) was -0.0124. The “increase in dead-cell fraction” value (AZD6738; 0.03162 µM) was -0.0113, the “increase in dead-cell fraction” value (AZD6738; 0.1 µM) was -0.0075 and the “increase in dead-cell fraction” value (AZD6738; 0.3162 µM) was -0.003. The “increase in dead-cell fraction” value (AZD6738; 1 µM) was 0.0064, the “increase in dead-cell fraction” value (AZD6738; 3.162 µM) was 0.0079 and the “increase in dead-cell fraction” value (AZD6738; 10 µM) was 0.0831. The “increase in dead-cell fraction” value (SHP099; 0.001 µM) was -0.0127, the “increase in dead-cell fraction” value (SHP099; 0.003162 µM) was -0.0116 and the “increase in dead-cell fraction” value (SHP099; 0.01 µM) was -0.0073. For the same cell line, the “increase in dead-cell fraction” value (SHP099; 0.03162 µM) was -0.0133, the “increase in dead-cell fraction” value (SHP099; 0.1 µM) was -0.0124 and the “increase in dead-cell fraction” value (SHP099; 0.3162 µM) was -0.0047. The “increase in dead-cell fraction” value (SHP099; 1 µM) was -0.0147, the “increase in dead-cell fraction” value (SHP099; 3.162 µM) was 0.0036 and the “increase in dead-cell fraction” value (SHP099; 10 µM) was -0.0053. For the same cell line, the “increase in dead-cell fraction” value ([2]; 0.001 µM) was 0.0215, the “increase in dead-cell fraction” value ([2]; 0.003162 µM) was -0.004 and the “increase in dead-cell fraction” value ([2]; 0.01 µM) was 0.0231. For the same cell line, the “increase in dead-cell fraction” value ([2]; 0.03162 µM) was 0.0204, the “increase in dead-cell fraction” value ([2]; 0.1 µM) was 0.0353 and the “increase in dead-cell fraction” value ([2]; 0.3162 µM) was 0.0286. The “increase in dead-cell fraction” value ([2]; 1 µM) was 0.0615, the “increase in dead-cell fraction” value ([2]; 3.162 µM) was 0.0772 and the “increase in dead-cell fraction” value ([2]; 10 µM) was 0.136. The “increase in dead-cell fraction” value (R0-3306; 0.001 µM) was -0.0007, the “increase in dead-cell fraction” value (R0-3306; 0.003162 µM) was 0.0211 and the “increase in dead-cell fraction” value (R0-3306; 0.01 µM) was 0.0272. The “increase in dead-cell fraction” value (R0-3306; 0.03162 µM) was 0.005, the “increase in dead-cell fraction” value (R0-3306; 0.1 µM) was 0.0121 and the “increase in dead-cell fraction” value (R0-3306; 0.3162 µM) was 0.0139. For the same cell line, the “increase in dead-cell fraction” value (R0-3306; 1 µM) was 0.0267, the “increase in dead-cell fraction” value (R0-3306; 3.162 µM) was 0.0545 and the “increase in dead-cell fraction” value (R0-3306; 10 µM) was 0.329. The “increase in dead-cell fraction” value ([3]; 0.0001 µM) was 0.0026, the “increase in dead-cell fraction” value ([3]; 0.0003162 µM) was 0.0025 and the “increase in dead-cell fraction” value ([3]; 0.001 µM) was 0.0021. The “increase in dead-cell fraction” value ([3]; 0.003162 µM) was 0.0022, the “increase in dead-cell fraction” value ([3]; 0.01 µM) was 0.0009 and the “increase in dead-cell fraction” value ([3]; 0.03162 µM) was -0.0017. The “increase in dead-cell fraction” value ([3]; 0.1 µM) was -0.0015, the “increase in dead-cell fraction” value ([3]; 0.3162 µM) was -0.0026 and the “increase in dead-cell fraction” value ([3]; 1 µM) was 0.0032. The “increase in dead-cell fraction” value (Taselisib/GDC0032; 0.001 µM) was 0.0087, the “increase in dead-cell fraction” value (Taselisib/GDC0032; 0.003162 µM) was 0.0153 and the “increase in dead-cell fraction” value (Taselisib/GDC0032; 0.01 µM) was 0.0378. The “increase in dead-cell fraction” value (Taselisib/GDC0032; 0.03162 µM) was 0.0611, the “increase in dead-cell fraction” value (Taselisib/GDC0032; 0.1 µM) was 0.0674 and the “increase in dead-cell fraction” value (Taselisib/GDC0032; 0.3162 µM) was 0.0853. The “increase in dead-cell fraction” value (Taselisib/GDC0032; 1 µM) was 0.0898, the “increase in dead-cell fraction” value (Taselisib/GDC0032; 3.162 µM) was 0.0794 and the “increase in dead-cell fraction” value (Taselisib/GDC0032; 10 µM) was 0.207. The “increase in dead-cell fraction” value ([4]; 10 pM) was -0.002, the “increase in dead-cell fraction” value ([4]; 31.6 pM) was -0.0013 and the “increase in dead-cell fraction” value ([4]; 0.0001 µM) was -0.0035. For the same cell line, the “increase in dead-cell fraction” value ([4]; 0.0003162 µM) was -0.0022, the “increase in dead-cell fraction” value ([4]; 0.001 µM) was 0.139 and the “increase in dead-cell fraction” value ([4]; 0.003162 µM) was 0.168. The “increase in dead-cell fraction” value ([4]; 0.01 µM) was 0.194, the “increase in dead-cell fraction” value ([4]; 0.03162 µM) was 0.187 and the “increase in dead-cell fraction” value ([4]; 0.1 µM) was 0.211.

— the supplement of paper PMC9663587
